Measurements as given in patent US10668020B1, “Pullulan based vinpocetine tablets, lyoplant-tabs, as a buccal solid dosage form” (King Abdulaziz University, priority 2019, dated 2020).
≈ marks a conversion by molar mass, not a printed value.

How the values were obtained:
[1] = Equilibrium saturation solubility and solubilization efficiency; format: physicochemical; details: distilled water, thermodynamic from solid; pure drug, water at 25° C.; read-out: solubility of VPN in water
Description: To study the effects of the prepared solid dispersions on the solubility of VPN, the equilibrium solubility was determined as previously reported. (Ahmed et al. Pharm Dev Technol. 2011; 16 (5):497-510). An excess amount of either pure drug or the prepared solid dispersions were added to screw-capped vials containing 10 mL of distilled water. The vials were placed in a thermostatically controlled shaking water bath (Model 1031; GFL Corporation. Burgwedel, Germany) at 25±0.5° C. for 48 h. […] Aliquots withdrawn were filtered through a 0.22 μm pore-size Millipore filter and assayed for drug content using high performance liquid chromatography (HPLC) method Ding et al. Asian J Pharm Sci. 2015; 10:114-120. doi:10.1016/j.ajps.2014.08.008), with slight modifications. An isocratic HPLC method was performed using Agilent 1200 series equipped with UV diode array detector. A reversed phase C18 analytical column (4×250 mm, 5 μm; Thermo Fischer Scientific) was used. The mobile phase was composed of a mixture of methanol and 0.05 ammonium acetate buffer of pH 5.5, 80:20 (v/v). The flow rate of the mobile phase was 1 mL/min, the injection volume was 20 μL and the detection wave length was 273 nm. […]
The solubility of vinpocetine, in the prepared solid dispersions, was compared to the intrinsic drug solubility and the resulting ratios of solubilization efficiency (solubility enhancement) were calculated. […]

[2] = Phase solubility study and thermodynamic parameter of solubility in aqueous PVP-VA64 solution; format: physicochemical
Description: An excess amount of pure VPN was added separately into screw-capped vials containing 10 mL of aqueous polyvinyl pyrrolidone vinyl acetate (PVP-VA64) solution (0-10% w/v). The vials were sealed and shaken in a water bath at 37° C. for 72 h. Aliquots (n=3) from each vial were filtered through a 0.22 μm pore-size Millipore filter, and the filtrates were assayed by HPLC. The change in the solubility of VPN resulting from the addition of different PVP-VA-64 concentrations was used to construct a phase-solubility plot and to evaluate the stoichiometry and the stability constant of complexation (Kst), which exemplifies the strength of the interaction and stability of the complex formed.
Calculation of the apparent stability constant, Kst, was achieved from the phase solubility diagram according to the equation described by Higuchi and Connors (Adv Anal Chem Instrum. 1965; 4:117-210), based on the assumption that 1:1 complex was initially formed.
[formula] In the equation, “So” represents the drug solubility in the absence of the studied polymer (the intercept of the phase solubility diagram constructed).
To evaluate the solubilizing efficiency of the studied polymer for the drug, the complexation efficiency (CE) was determined. It was calculated according to the following equation: CE=So K1:1=slope/(1-slope).
The Gibbs free energy (ΔG°tr) for the transfer of VPN from pure water to aqueous solutions of PVP-VA-64 was calculated using the following equation: ΔG°tr=−2.303 RT Log (Sc/So) where Sc/So is the ratio of the molar drug solubility in an aqueous solution of PVP-VA-64 to that of pure water. R is the gas rate constant ([…]) and T is the temperature in Kelvin at which the study was conducted. The Gibbs free energy can also be referred to as the thermodynamic potential that is minimized when a system reaches chemical equilibrium from an initial state to a final state at constant pressure and temperature. Dissolution of the Prepared Solid Dispersion

[3] = In vitro dissolution of the prepared solid dispersion (USP apparatus II); format: physicochemical; details: simulated intestinal fluid pH 6.8, 37° C.
Description: An in vitro dissolution study of the pure drug and the vinpocetin-PVP-VA64 inclusion complex (equivalent to 5 mg VPN) was performed in triplicate, using the United States Pharmacopeia (USP) dissolution test apparatus II paddle type, DT 700 LH device, Erweka GmbH DT 700 (Heusenstamm, Germany) at 37° C. for 2 h, with a stirring rate of 50 rpm, in 900 mL of enzyme-free simulated intestinal fluid (pH 6.8). Aliquots were collected at 5, 10, 15, 20, 25, 30, 45, 60, 90 and 120 min, with immediate replacement of an equal volume of fluid, and the collected samples were filtered through a 0.22 μm pore-size Millipore filter and assayed for drug content using high performance liquid chromatography (HPLC). From the dissolution profile curve constructed, DP5min, DP30min and DP120min, the percent of drug dissolved within 5, 30 and 120 minutes, respectively, were estimated. Also, the dissolution efficiency within 10 and 120 minutes, (DE10min) and (DE120min), respectively and, the mean dissolution time were calculated. For each formulation, the dissolution efficiency was determined as the percent ratio of area under the dissolution profile curve up to the time, t, to that of the area of the rectangle described by 100% dissolution at the same time.

[4] = weak basic drug; cited from earlier work
[5] = background statement; cited from earlier work

solubility at 48 h [1]: 2.31 µg/mL (≈ 6.59 µM) | ΔG°tr ([2]; 1% polymeric solution (PVP-VA-64)): -1.144722 kcal/mol | ΔG°tr ([2]; 2% polymeric solution (PVP-VA-64)): -1.513035 kcal/mol | ΔG°tr ([2]; 3% polymeric solution (PVP-VA-64)): -1.766491 kcal/mol | ΔG°tr ([2]; 4% polymeric solution (PVP-VA-64)): -2.010924 kcal/mol | ΔG°tr ([2]; 5% polymeric solution (PVP-VA-64)): -2.097426 kcal/mol | ΔG°tr ([2]; 6% polymeric solution (PVP-VA-64)): -2.189169 kcal/mol | ΔG°tr ([2]; 7% polymeric solution (PVP-VA-64)): -2.315229 kcal/mol | ΔG°tr ([2]; 8% polymeric solution (PVP-VA-64)): -2.413399 kcal/mol | ΔG°tr ([2]; 9% polymeric solution (PVP-VA-64)): -2.456587 kcal/mol | ΔG°tr ([2]; 10% polymeric solution (PVP-VA-64)): -2.547512 kcal/mol | type of complexation (phase solubility profile) ([2]; VPN with PVP-VA-64): AP-type complexation | complexation efficiency CE ([2]; VPN with PVP-VA-64, 37° C.): 0.0014 | stability constant Kst ([2]; VPN with PVP-VA-64, 37° C., 1:1 complex assumed): 7 mL/mg | DE120, dissolution efficiency within 120 minutes [3]: 18.67±3.73% | DE10min, dissolution efficiency within 10 minutes [3]: 0.428±0.159% | DP5min, percent of drug dissolved within 5 minutes ([3]; 50 rpm): 5.62±2.45% | DP30min, percent of drug dissolved within 30 minutes ([3]; 50 rpm): 16.46±3.58% | DP120min, percent of drug dissolved within 120 minutes ([3]; 50 rpm): 22.41±6.04%
SMILES: CCOC(=O)C1=C[C@]2(CC)CCCN3CCc4c(n1c1ccccc41)[C@@H]32 [Vinpocetine]
pKa [4]: 7.31 | elimination half-life [5]: 1 to 2 h | first pass metabolism (metabolism in liver) [5]: 75%
